Results on seven compounds are retold here after patent US20240383899A1, “MODIFIED CARBAPENEM ANTIBIOTICS WITH IMPROVED ACTIVITY AGAINST KPC CARBAPENEMASE-PRODUCING ENTEROBACTERALES” (priority 2023, published 2024).

Test in all cases: In vitro activity (MIC) against Gram-negative aerobic bacteria
Assay type in all cases: cell-based

Experiment [1] concerns Klebsiella pneumoniae MMX 4683 (CDC ART2008030); ESBL, KPC-2.
Experiment [2] deals with Klebsiella pneumoniae MMX 4885; KPC.
Experiment [3] deals with Klebsiella pneumoniae MMX 6854; ESBL.
The subject of experiment [4] is Enterobacter cloacae MMX 6089.
The subject of experiment [5] is Citrobacter freundii MMX 6284.
In experiment [6] the test system is Proteus mirabilis MMX 6442.
Experiment [7] deals with Serratia marcescens MMX 6462.
For experiment [8], the system named is Acinetobacter baumannii ATCC 19606.
Experiment [9] relates to Acinetobacter baumannii MMX 2587; MDR.
Experiment [10] deals with Acinetobacter baumannii MMX 2599.

Values after ≈ are worked out from the molar mass of the structure shown. Like-named read-outs stand apart in the source and are kept apart here.

One may read the MIC as the lowest concentration that inhibits growth of the organism. In the case of `CN[C@H](CC(C)C)C(=O)N[C@H]1C(=O)N[C@@H](CC(N)=O)C(=O)N[C@H]2C(=O)N[C@H]3C(=O)N[C@H](C(=O)N[C@H](C(=O)O)c4cc(O)cc(O)c4-c4cc3ccc4O)[C@H](O)c3ccc(c(Cl)c3)Oc3cc2cc(c3O[C@@H]2O[C@H](CO)[C@@H](O)[C@H](O)[C@H]2O[C@H]2C[C@](C)(N)[C@H](O)[C@H](C)O2)Oc2ccc(cc2Cl)[C@H]1O` [VAN, vancomycin], the MIC was more than 32 µg/mL in experiment [1] (read-out: MIC); more than 32 µg/mL in experiment [2] (read-out: MIC); more than 32 µg/mL in experiment [3] (read-out: MIC); more than 32 µg/mL in experiment [4] (MMX6089, read-out: MIC); more than 32 µg/mL in [5] (MMX6284, read-out: MIC); more than 32 µg/mL in experiment [6] (MMX6442, read-out: MIC). In addition, the MIC in experiment [7] (MMX6462, read-out: MIC) is more than 32 µg/mL; in experiment [8] (ATCC19606, read-out: MIC), more than 32 µg/mL; in [9] (read-out: MIC), more than 32 µg/mL; in experiment [10] (MMX2599, read-out: MIC), more than 32 µg/mL.

On to `C[C@@H](O)[C@H]1C(=O)N2C(C(=O)O)=C(S[C@@H]3CN[C@H](C(=O)N(C)C)C3)[C@H](C)[C@H]12` [MEM, meropenem], for which the MIC in [1] (read-out: MIC) is more than 8 µg/mL; in experiment [2] (read-out: MIC) it was more than 8 µg/mL; in experiment [3] (read-out: MIC), 0.25 µg/mL (≈ 0.652 µM); in experiment [4] (MMX6089, read-out: MIC), 0.06 µg/mL (≈ 0.156 µM); in experiment [5] (MMX6284, read-out: MIC), more than 8 µg/mL; in experiment [6] (MMX6442, read-out: MIC), 0.12 µg/mL (≈ 0.313 µM). For the same compound, the MIC was 0.25 µg/mL (≈ 0.652 µM) in [7] (MMX6462, read-out: MIC); 2 µg/mL (≈ 5.22 µM) in experiment [8] (ATCC19606, read-out: MIC); more than 8 µg/mL in experiment [9] (read-out: MIC); 0.25 µg/mL (≈ 0.652 µM) in experiment [10] (MMX2599, read-out: MIC).

On to `C[C@H](O)[C@H]1C(=O)N2C(C(=O)O)=C(S[C@@H]3CN[C@H](C(=O)N(C)C)C3)[C@H](C)[C@H]12` [JDB-1-200, (4R,5S,6S)-3-(((3S,5S)-5-(dimethylcarbamoyl)pyrrolidin-1-ium-3-yl)thio)-6-((S)-1-hydroxyethyl)-4-methyl-7-oxo-1-azabicyclo[3.2.0]hept-2-ene-2-carboxylate], for which the MIC in experiment [1] (read-out: MIC) stood at 1 µg/mL (≈ 2.61 µM); in experiment [2] (read-out: MIC), 0.5 µg/mL (≈ 1.3 µM); in [3] (read-out: MIC) it was 0.5 µg/mL (≈ 1.3 µM); in experiment [4] (MMX6089, read-out: MIC), 0.12 µg/mL (≈ 0.313 µM); in experiment [5] (MMX6284, read-out: MIC) it was 1 µg/mL (≈ 2.61 µM); in experiment [6] (MMX6442, read-out: MIC) it was 1 µg/mL (≈ 2.61 µM). Further, the MIC in experiment [7] (MMX6462, read-out: MIC) was 0.5 µg/mL (≈ 1.3 µM); in experiment [8] (ATCC19606, read-out: MIC) it was 0.5 µg/mL (≈ 1.3 µM); in [9] (read-out: MIC), 32 µg/mL (≈ 83.4 µM); in [10] (MMX2599, read-out: MIC) it was 0.12 µg/mL (≈ 0.313 µM).

For the compound `CC(C)(O/N=C(\C(=O)N[C@@H]1C(=O)N2C(C(=O)[O-])=C(C[n+]3ccccc3)CS[C@H]12)c1csc(N)n1)C(=O)O` [CAZ, ceftazidime], the MIC in experiment [1] (read-out: MIC) was more than 32 µg/mL; in experiment [2] (read-out: MIC) it was more than 32 µg/mL; in experiment [3] (read-out: MIC), 0.5 µg/mL (≈ 0.915 µM); in experiment [4] (MMX6089, read-out: MIC) it was 32 µg/mL (≈ 58.5 µM); in experiment [5] (MMX6284, read-out: MIC), more than 32 µg/mL; in [6] (MMX6442, read-out: MIC), not above 0.03 µg/mL. The MIC in experiment [7] (MMX6462, read-out: MIC) is 0.25 µg/mL (≈ 0.457 µM); in [8] (ATCC19606, read-out: MIC) it was 8 µg/mL (≈ 14.6 µM); in [9] (read-out: MIC), more than 32 µg/mL; in [10] (MMX2599, read-out: MIC), 8 µg/mL (≈ 14.6 µM).

Take colistin: the MIC in experiment [1] is 0.12 µg/mL; in experiment [2], 8 µg/mL; in experiment [3], 0.25 µg/mL; in experiment [4], 0.12 µg/mL; in experiment [5] it was 0.12 µg/mL; in experiment [6] it was more than 32 µg/mL. Moreover, the MIC is more than 32 µg/mL in experiment [7], 0.5 µg/mL in [8], 1 µg/mL in experiment [9] and 2 µg/mL in experiment [10].

Regarding `COc1c(N2C[C@@H]3CCCN[C@@H]3C2)c(F)cc2c(=O)c(C(=O)O)cn(C3CC3)c12` [MOX, moxifloxacin], the MIC is more than 4 µg/mL in [1] (read-out: MIC); more than 4 µg/mL in experiment [2] (read-out: MIC); 0.5 µg/mL (≈ 1.25 µM) in experiment [3] (read-out: MIC); 0.03 µg/mL (≈ 0.0747 µM) in experiment [4] (MMX6089, read-out: MIC); more than 4 µg/mL in experiment [5] (MMX6284, read-out: MIC); 0.25 µg/mL (≈ 0.623 µM) in [6] (MMX6442, read-out: MIC). Moreover, the MIC in [7] (MMX6462, read-out: MIC) is 0.12 µg/mL (≈ 0.299 µM); in [8] (ATCC19606, read-out: MIC) it was 0.25 µg/mL (≈ 0.623 µM); in experiment [9] (read-out: MIC), more than 4 µg/mL; in experiment [10] (MMX2599, read-out: MIC), 0.12 µg/mL (≈ 0.299 µM).

Consider `Cc1ncc([N+](=O)[O-])n1CCO` [MET, metronidazole], for which the MIC is more than 32 µg/mL in experiment [1] (read-out: MIC); more than 32 µg/mL in experiment [2] (read-out: MIC); more than 32 µg/mL in [3] (read-out: MIC); more than 32 µg/mL in [4] (MMX6089, read-out: MIC); more than 32 µg/mL in experiment [5] (MMX6284, read-out: MIC); more than 32 µg/mL in experiment [6] (MMX6442, read-out: MIC). The MIC is more than 32 µg/mL in experiment [7] (MMX6462, read-out: MIC); more than 32 µg/mL in experiment [8] (ATCC19606, read-out: MIC); more than 32 µg/mL in experiment [9] (read-out: MIC); more than 32 µg/mL in experiment [10] (MMX2599, read-out: MIC).
